Biological target: T1, GBA3 (Homo sapiens, UniProt Q9H227)
T1 construct: expressed in transfected cells; host or cells: HEK293T GBA1/GBA2 KO, GBA3 overexpressed
T1 sequence (Q9H227 1-469): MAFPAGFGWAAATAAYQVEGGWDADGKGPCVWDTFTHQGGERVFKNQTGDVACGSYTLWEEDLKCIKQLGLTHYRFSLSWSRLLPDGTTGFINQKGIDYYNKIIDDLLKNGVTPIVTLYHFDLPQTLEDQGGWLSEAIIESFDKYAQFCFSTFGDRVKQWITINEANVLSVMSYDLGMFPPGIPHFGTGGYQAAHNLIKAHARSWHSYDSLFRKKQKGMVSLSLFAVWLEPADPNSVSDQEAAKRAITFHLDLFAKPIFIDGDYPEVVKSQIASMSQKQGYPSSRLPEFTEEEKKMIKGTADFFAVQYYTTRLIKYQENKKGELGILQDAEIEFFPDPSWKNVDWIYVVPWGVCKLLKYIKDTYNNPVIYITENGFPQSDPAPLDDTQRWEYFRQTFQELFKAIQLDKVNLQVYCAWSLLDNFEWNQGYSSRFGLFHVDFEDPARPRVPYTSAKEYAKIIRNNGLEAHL
Assay: 4MU fluorogenic substrate assay for apparent IC50, GBA3
Type: biochemical
Conditions: 30 min pre-incubation, 4MU-β-D-Glc
Description: To identify an ABP that selectively labels human GBA2 over GBA1 and GBA3, a library of cyclophellitol-based ABPs with varying configurations (ESI Fig. S1 ^†) was screened for their selectivity towards human retaining β-glucosidases. For this purpose, we initially assessed the inhibition properties of the compounds using recombinant human GBA1 (rhGBA1, imiglucerase), lysates of cells overexpressing GBA2 or GBA3 (both in combination with knockout of the other retaining β-glucosidases). In a preliminary screen, enzymes were pre-incubated for 30 min with the tested compounds, followed by the addition of the fluorogenic substrate, 4MU-β-D-Glc, and subsequent quantification of released fluorescent 4MU after 30 minutes. This screening brought our attention to a new set of β-D-Araf cyclitol aziridines as potential GBA2 inhibitors. […] On the other hand, the biotin-tagged β-D-Araf compound 6 is a poor inhibitor of all three glucosidases (apparent IC50 > 8 μM). Arabinofuranosyl cyclitol 12–20 with various configurations (α-L-Araf and β-L-Araf) were also evaluated (ESI Fig. S1 ^†).
Recombinant human GBA1 (rhGBA1, Imiglucerase) was kindly provided by Sanofi Genzyme (Cambridge, MA, USA). 4-Methylumbelliferyl-β-D-glucopyranoside substrates were purchase from Glycosynth (Warrington Cheshire, UK). Protein concentration was measured using the Pierce BCA assay kit (Thermo Fisher Scientific, Waltham, MA, USA). Harvested cells (cell pellets), cell lysates and tissue homogenates not used directly were stored at -80 °C.
HEK293T (CRL‐3216™) cells were purchased from ATCC (Manassas, VA, USA). HEK293T cells were cultured in DMEM medium (Sigma‐Aldrich), supplied with 10% (v/v) FCS, 0.1% (w/v) penicillin/streptomycin and 1% (v/v) Glutamax, under 37 °C and 5% or 7% CO2. […]
2.3 Generation of cells genetically modified for β-glucosidase expression For overexpression of the different β-glucosidases, "wildtype" HEK293T cells, HEK293T cells with GBA2 knockout (KO) or HEK293T cells with both GBA1 and GBA2 KO were used, following by the overexpression (OE) of targeted β-glucosidases using the constructs as described in references.1,2 Either GBA2 or GBA3 were overexpressed in GBA1/GBA2 KO HEK293T (generated by the CRISPR/Cas9 method2) to generate GBA1/2 KOs with GBA2 (or GBA3) for overexpression in HEK293T cells as indicated, or using "wildtype" HEK293T cells containing endogenous GBA1 and GBA2 to overexpress both GBA2 and GBA3, these were generated as described in our previous report.1,2 […]
Cells were cultured with the method described above to 80-90% confluency, and were isolated, washed with Dulbecco′s phosphate buffered saline (PBS) and subsequently collected using the following method.3 HEK293T and RPE-1 cells were easily detached from the culture plate by trypsin treatment after which some DMEM medium was added. The cells were collected by pipetting and DMEM medium was removed by centrifuging. The cells were washed with cold PBS three times, after which they were centrifuged to remove PBS and then stored at –80 °C for further use or lysed in potassium phosphate buffer (K2HPO4-KH2PO4, 25 mM, pH 6.5, supplemented with 0.1% (v/v) Triton X-100 and protease inhibitor cocktail (EDTA-free, Roche, Basel, Switzerland)) by sonication with a Polytron PT 1300D sonicator (Kinematica, Luzern, Switzerland). After sonication, lysed mixtures were centrifuged at 10,000 x g for 3 min at 4°C, and the supernatants where desired β-glucosidases exist were used for the experiment.
2.5 4MU fluorogenic substrate assay for apparent IC50 determination
4MU fluorogenic substrate assays (using recombination human rhGBA1 or lysates of HEK293T cells) were conducted in 96-well plates at 37 °C. Samples were diluted with McIlvaine buffer (150 mM citric acid-Na2HPO4) to a final volume of 25 μL, at the appropriate pH for each enzyme. Assays were performed by incubating the samples with 100 μL 4-methylumbelliferyl-β-D-glucopyranoside substrate diluted in McIlvaine buffer for a period of 30 min. […]

[1] = GBA1/GBA2 KO GBA3 OE HEK293T cell lysate, pH 6.0, n = 3 for β-D-Araf, n = 1 for α-L-Araf and β-L-Araf

| SMILES | IC50 [1] [µM] | IC50 [µM] |
| --- | --- | --- |
| [N-]=[N+]=NCCCCCCCCN1[C@@H]2[C@H](CO)[C@@H](O)[C@H](O)[C@@H]21 (stereo partly drawn) [Compound 2, β-D-arabinofuranosyl cyclitol aziridine-azidooctyl] | 8.15 | – |
| CN1/C(=C/C=C/C=C/C2=[N+](CCCCCC(=O)NCc3cn(CCCCCCCCN4[C@@H]5[C@H](CO)[C@@H](O)[C@H](O)[C@@H]54)nn3)c3ccccc3C2(C)C)C(C)(C)c2ccccc21 (some centres unmarked) [ABP 5] | 1.52 ± 0.159 | – |
| OC[C@@H]1[C@@H](O)[C@H](O)[C@@H]2N[C@H]12 [Compound 1, β-D-Arabinofuranosyl cyclitol aziridine] | > 50 | > 50 |
| CC1=CC(C)=[N+]2C1=C(CCCCc1cn(CCCCCCCCN3[C@@H]4[C@H](CO)[C@@H](O)[C@H](O)[C@@H]43)nn1)c1c(C)cc(C)n1[B-]2(F)F (some centres unmarked) [ABP 3] | > 10 | – |
| COc1ccc(C2=[N+]3C(=C(CCCCc4cn(CCCCCCCCN5[C@@H]6[C@H](CO)[C@@H](O)[C@H](O)[C@@H]65)nn4)c4ccc(-c5ccc(OC)cc5)n4[B-]3(F)F)C=C2)cc1 (some centres unmarked) [ABP 4] | > 10 | – |
| O=C(CCCC[C@@H]1SC[C@@H]2NC(=O)N[C@@H]21)NCc1cn(CCCCCCCCN2[C@@H]3[C@H](CO)[C@@H](O)[C@H](O)[C@@H]32)nn1 (some centres unmarked) [ABP 6] | 10.3 ± 1.9 | > 8 |

— PMC11375437, “Selective labelling of GBA2 in cells with fluorescent β-D-arabinofuranosyl cyclitol aziridines” (Chemical Science, 2024)
